Experiments:
[1] = system: Breast-5 (BR5) triple-negative breast cancer (TNBC) PDX; assay: In vivo efficacy, BR5 TNBC PDX; design: species or system NOD/SCID mice (human tumor PDX); conditions: for tumor volume ± SEM: 1.5 mg/kg
[2] = system: Breast-13 (BR13) TNBC PDX; assay: In vivo efficacy, BR13 TNBC PDX; design: species or system NOD/SCID mice (human tumor PDX); conditions: for tumor volume ± SEM: 1.5 mg/kg
[3] = system: Breast-31 (BR31) TNBC PDX; assay: In vivo efficacy, BR31 TNBC PDX; design: species or system NOD/SCID mice (human tumor PDX); conditions: for mean tumor volume: 1.5 mg/kg
[4] = system: Breast-56 (BR56) TNBC PDX; assay: In vivo efficacy, BR56 TNBC PDX; design: species or system NOD/SCID mice (human tumor PDX); conditions: for tumor volume ± SEM: 1.5 mg/kg
[5] = system: Ovarian-39 (OV39) ovarian cancer PDX; assay: In vivo efficacy, OV39 ovarian cancer PDX; design: species or system NOD/SCID mice (human tumor PDX); conditions: for mean tumor volume: 1.5 mg/kg
[6] = system: BR25; assay: In vivo efficacy, BR25 TNBC Claudin-low tumor model; design: species or system mice; conditions: 1.5 mpk
From the text: (§1) In breast and ovarian models, tumor regression was defined as a reduction in mean tumor volume after dosing. TGI=Tumor Growth Inhibition. % TGI=[1−(Mean Tumor Volume of Treated)/(Mean Tumor Volume of Vehicle)]. […] ADC dose levels are listed in mg/kg according to antibody content.

[7] = system: BR64; assay: In vivo efficacy, BR64 TNBC Claudin-low tumor model; design: species or system mice; conditions: 1.5 mpk
From the text: as §1

[8] = system: BR17; assay: In vivo efficacy, BR17 HER2+ breast tumor model; design: species or system mice; conditions: 1.5 mpk
From the text: as §1

[9] = system: Breast-22 (BR22) TNBC PDX; assay: In vivo efficacy, BR22 TNBC PDX; conditions: for tumor volume ± SEM: 1.5 mg/kg
From the text: as §1

[10] = system: Ovarian-44 (OV44) ovarian cancer PDX; assay: In vivo efficacy, OV44 ovarian cancer PDX; design: species or system NOD/SCID mice (human tumor PDX); conditions: 5 mpk, once a week for 2 cycles
[11] = system: Ovarian-63 (OV63) ovarian cancer PDX; assay: In vivo efficacy, OV63 ovarian cancer PDX; design: species or system NOD/SCID mice (human tumor PDX); mean tumor volume: unit not given beside the values; conditions: for mean tumor volume: 5.0 mg/kg

SMILES: COc1cccc2c1C(=O)c1c(O)c3c(c(O)c1C2=O)C[C@@](O)(C(=O)CO)C[C@@H]3O[C@H]1C[C@H](N)[C@H](O)[C@H](C)O1 [Doxorubicin, doxorubicin, reference compound]
- tumor volume ± SEM ([1]; Day 0): 166 ± 18 mm^3
- tumor volume ± SEM ([1]; Day 7): 494 ± 70 mm^3
- tumor volume ± SEM ([1]; Day 11): 752 ± 92 mm^3
- tumor volume ± SEM ([1]; Day 18): 966 ± 32 mm^3
- % TGI ([1]; 1.5 mpk, BR5 PDX): 44% TGI
- impact on tumor growth ([1]; in vivo): neither the control ADC nor doxorubicin standard-of-care (SOC) impacted tumor growth
- tumor volume ± SEM ([2]; Day 0): 167 ± 13 mm^3
- tumor volume ± SEM ([2]; Day 7): 178 ± 20 mm^3
- tumor volume ± SEM ([2]; Day 22): 322 ± 38 mm^3
- tumor volume ± SEM ([2]; Day 14): 227 ± 25 mm^3
- tumor volume ± SEM ([2]; Day 28): 326 ± 34 mm^3
- % TGI ([2]; 1.5 mpk, BR13): 16% TGI
- impact on tumor growth ([2]; in vivo): neither the control ADC nor doxorubicin SOC impacted tumor growth
- mean tumor volume ([3]; Day 0): 160 ± 11
- mean tumor volume ([3]; Day 7): 304 ± 20
- mean tumor volume ([3]; Day 14): 458 ± 24
- mean tumor volume ([3]; Day 21): 592 ± 56
- mean tumor volume ([3]; Day 28): 759 ± 111
- % TGI ([3]; 1.5 mpk, BR31 PDX): 30% TGI
- impact on tumor growth ([3]; in vivo): neither the control ADC nor doxorubicin SOC impacted tumor growth
- tumor volume ± SEM ([4]; Day 0): 141 ± 13 mm^3
- tumor volume ± SEM ([4]; Day 4): 182 ± 11 mm^3
- tumor volume ± SEM ([4]; Day 11): 267 ± 31 mm^3
- tumor volume ± SEM ([4]; Day 18): 318 ± 32 mm^3
- tumor volume ± SEM ([4]; Day 25): 374 ± 50 mm^3
- % TGI ([4]; 1.5 mpk, BR56 PDX): 49% TGI
- impact on tumor growth ([4]; in vivo): neither the control ADC nor doxorubicin SOC impacted tumor growth
- mean tumor volume ([5]; Day 0): 186 ± 33
- mean tumor volume ([5]; Day 7): 282 ± 50
- mean tumor volume ([5]; Day 14): 171 ± 32
- mean tumor volume ([5]; Day 17): 122 ± 24
- mean tumor volume ([5]; Day 24): 83 ± 11
- mean tumor volume ([5]; Day 28): 118 ± 17
- mean tumor volume ([5]; Day 35): 361 ± 40
- mean tumor volume ([5]; Day 42): 712 ± 97
- mean tumor volume ([5]; Day 49): 966 ± 85
- Regression (TTP, Days) or % TGI [6]: No activity
- Regression (TTP, Days) or % TGI [7]: No activity
- % TGI [8]: 66% TGI
- tumor volume ± SEM ([9]; Day 0): 244 ± 17 mm^3
- tumor volume ± SEM ([9]; Day 7): 416 ± 61 mm^3
- tumor volume ± SEM ([9]; Day 14): 553 ± 39 mm^3
- tumor volume ± SEM ([9]; Day 21): 729 ± 91 mm^3
- % TGI ([9]; 1.5 mpk, BR22 PDX): 27% TGI
- impact on tumor growth ([9]; in vivo): Neither the control ADC nor doxorubicin SOC impacted tumor growth

SMILES: N.N.[Cl][Pt][Cl] [Cisplatin, cisplatin, reference compound]
- Regression (TTP, Days) [10]: Regression (60) Days
- mean tumor volume ([11]; Day 0): 153 ± 22
- mean tumor volume ([11]; Day 5): 146 ± 27
- mean tumor volume ([11]; Day 18): 198 ± 29
- mean tumor volume ([11]; Day 25): 205 ± 36
- mean tumor volume ([11]; Day 32): 238 ± 49
- mean tumor volume ([11]; Day 39): 221 ± 40
- mean tumor volume ([11]; Day 47): 243 ± 42
- mean tumor volume ([11]; Day 53): 265 ± 63
- mean tumor volume ([11]; Day 60): 296 ± 80
- mean tumor volume ([11]; Day 67): 265 ± 82
- % TGI ([11]; 5 mpk, once a week for 2 cycles, OV63 PDX): 35% TGI
- Regression (TTP, Days) ([5]; 5 mpk, once a week for 2 cycles, OV39): Regression (28) Days

Reference: US9872922B2, “Anti-EFNA4 antibody-drug conjugates” (PFIZER, INC., priority 2013, dated 2018)
